From patent US8497380B2, “Substituted acetophenones useful as PDE4 inhibitors” (Leo Pharma A/S, priority 2006, dated 2013)

These molecules were tested on Human peripheral blood mononuclear cells (PBMC) (assay: TNFalfa-Release). Details: inhibition of TNF-a secretion, PBMC pre-incubated 30 minutes, stimulated 18 hours with lipopolysaccharide.
Format: cell-based
Description: Human peripheral blood mononuclear cells (PBMC) are Isolated from buffy coats. The blood is mixed with saline at a ratio of 1:1, and the PBMC is isolated by the use of Lymphoprep Tubes™ (Nycomed, Norway). The PBMC is suspended in RPMI1640 with 2% foetal calf serum (FCS), pen/strep and 2 mM L-glutamine at a concentration of 5×105 c/ml. The cells are pre-incubated for 30 minutes with the test compounds in 96 well tissue culture plates and stimulated for 18 hours with lipopolysaccharide 1 mg/ml (Sigma). The level of TNF-a is measured in the culture supernatant by enzyme immuno assays using primary and secondary biotinylated antibodies from R&D systems. Results are expressed as pIC50 values calculated from inhibition curves using as positive controls the secretion in LPS stimulated wells and as negative controls the secretion in unstimulated cells.

**Q.** For `COc1ccc(C(=O)Cc2c(Cl)cncc2Cl)c(OCCCOc2ccccc2)c1OC` [Compound 145, 2-(3,5-Dichloro-pyridin-4-yl)-1-[3,4-dimethoxy-2-(3-phenoxy-propoxy)-phenyl]-ethanone], which IC50 is on record?
**A.** The IC50 was < 1000 nM.

**Q.** Which IC50 does the source give for `COc1ccc(C(=O)COc2c(C(=O)Cc3c(Cl)cncc3Cl)ccc(OC)c2OC)cc1` [Compound 146, 2-(3,5-Dichloro-pyridin-4-yl)-1-{3,4-dimethoxy-2-[2-(4-methoxy-phenyl)-2-oxo-ethoxy]-phenyl}-ethanone] here?
**A.** The IC50 was < 1000 nM.

**Q.** For `COc1ccc(C(=O)Cc2c(Cl)cncc2Cl)c(OCc2ccccc2C#N)c1OC` [Compound 147, 2-{6-[2-(3,5-Dichloro-pyridin-4-yl)-acetyl]-2,3-dimethoxy-phenoxymethyl}-benzonitrile], which IC50 is on record?
**A.** Its IC50 is < 1000 nM.

**Q.** `COc1ccc(C(=O)Cc2c(Cl)cncc2Cl)c(OCc2ccc(C#N)cc2)c1OC` [Compound 148, 4-{6-[2-(3,5-Dichloro-pyridin-4-yl)-acetyl]-2,3-dimethoxy-phenoxymethyl}-benzonitrile] was tested. Which IC50 did it give?
**A.** Its IC50 is < 1000 nM.

**Q.** `CCCCCOc1c(C(=O)Cc2c(Cl)cncc2Cl)ccc(OC)c1OC` [Compound 150, 2-(3,5-Dichloro-pyridin-4-yl)-1-(3,4-dimethoxy-2-pentyloxy-phenyl)-ethanone] was tested. Which IC50 did it give?
**A.** Its IC50 is < 1000 nM.

**Q.** `COc1ccc(C(=O)Cc2c(Cl)cncc2Cl)c(OCC2CCCCC2)c1OC` [Compound 151, 1-(2-Cyclohexylmethoxy-3,4-dimethoxy-phenyl)-2-(3,5-dichloro-pyridin-4-yl)-ethanone] was tested. Which IC50 did it give?
**A.** The IC50 was < 1000 nM.

**Q.** For `COc1ccc(C(=O)Cc2c(Cl)cncc2Cl)c(OCc2cccc(C#N)c2)c1OC` [Compound 152, 3-{6-[2-(3,5-Dichloro-pyridin-4-yl)-acetyl]-2,3-dimethoxy-phenoxymethyl}-benzonitrile], which IC50 is on record?
**A.** The IC50 was < 1000 nM.

**Q.** With `COc1ccc(C(=O)Cc2c(Cl)cncc2Cl)c(OCCOc2ccc(Cl)cc2)c1OC` [Compound 153, 1-{2-[2-(4-Chloro-phenoxy)-ethoxy]-3,4-dimethoxy-phenyl}-2-(3,5-dichloro-pyridin-4-yl)-ethanone] as the molecule, how does the IC50 read?
**A.** The IC50 was < 1000 nM.

**Q.** `COc1ccc(C(=O)Cc2c(Cl)cncc2Cl)c(OCCO)c1OC` [Compound 155, 2-(3,5-Dichloro-pyridin-4-yl)-1-[2-(2-hydroxy-ethoxy)-3,4-dimethoxy-phenyl]-ethanone] was tested. Which IC50 did it give?
**A.** The IC50 was < 1000 nM.

**Q.** Which IC50 does the source give for `COc1ccc(C(=O)Cc2c(Cl)cncc2Cl)c(OCC(=O)c2ccc3ccccc3c2)c1OC` [Compound 157, 2-(3,5-Dichloro-pyridin-4-yl)-1-[3,4-dimethoxy-2-(2-naphthalen-2-yl-2-oxo-ethoxy)-phenyl]-ethanone] here?
**A.** The IC50 was < 1000 nM.

**Q.** `COc1ccc(C(=O)Cc2c(Cl)cncc2Cl)c(OCc2ccccc2F)c1OC` [Compound 161, 2-(3,5-Dichloro-pyridin-4-yl)-1-[2-(2-fluoro-benzyloxy)-3,4-dimethoxy-phenyl]-ethanone] was tested. Which IC50 did it give?
**A.** Its IC50 is < 1000 nM.

**Q.** Which IC50 does the source give for `COc1ccc(C(=O)Cc2c(Cl)cncc2Cl)c(OCc2cccc(C(F)(F)F)c2)c1OC` [Compound 162, 2-(3,5-Dichloro-pyridin-4-yl)-1-[3,4-dimethoxy-2-(3-trifluoromethyl-benzyloxy)-phenyl]-ethanone] here?
**A.** Its IC50 is < 1000 nM.

**Q.** How did the IC50 turn out when `COc1ccc(C(=O)Cc2c(Cl)cncc2Cl)c(OCc2cccc(OC(F)(F)F)c2)c1OC` [Compound 163, 2-(3,5-Dichloro-pyridin-4-yl)-1-[3,4-dimethoxy-2-(3-trifluoromethoxy-benzyloxy)-phenyl]-ethanone] was run?
**A.** The IC50 was < 1000 nM.

**Q.** For `COc1ccc(C(=O)Cc2c(Cl)cncc2Cl)c(OCc2ccccc2OC(F)F)c1OC` [Compound 168, 2-(3,5-Dichloro-pyridin-4-yl)-1-[2-(2-difluoromethoxy-benzyloxy)-3,4-dimethoxy-phenyl]-ethanone], which IC50 is on record?
**A.** The IC50 was < 1000 nM.

**Q.** How did the IC50 turn out when `COc1ccc(C(=O)Cc2c(Cl)cncc2Cl)c(OCc2c(F)cccc2C(F)(F)F)c1OC` [Compound 170, 2-(3,5-Dichloro-pyridin-4-yl)-1-[2-(2-fluoro-6-trifluoromethyl-benzyloxy)-3,4-dimethoxy-phenyl]-ethanone] was run?
**A.** The IC50 was < 1000 nM.

**Q.** How did the IC50 turn out when `COc1ccc(C(=O)Cc2c(Cl)cncc2Cl)c(OCc2ccc(C)c(F)c2F)c1OC` [Compound 171, 2-(3,5-Dichloro-pyridin-4-yl)-1-(2-(2,3-difluoro-4-methyl-benzyloxy)-3,4-dimethoxy-phenyl)-ethanone] was run?
**A.** Its IC50 is < 1000 nM.

**Q.** Which IC50 does the source give for `COc1ccc(C(=O)Cc2c(Cl)cncc2Cl)c(OCc2ccccc2Cl)c1OC` [Compound 176, 1-[2-(2-Chloro-benzyloxy)-3,4-dimethoxy-phenyl]-2-(3,5-dichloro-pyridin-4-yl)-ethanone] here?
**A.** The IC50 was < 1000 nM.

**Q.** Which IC50 does the source give for `COc1cccc(COc2c(C(=O)Cc3c(Cl)cncc3Cl)ccc(OC)c2OC)c1` [Compound 177, 2-(3,5-Dichloro-pyridin-4-yl)-1-[3,4-dimethoxy-2-(3-methoxy-benzyloxy)-phenyl]-ethanone] here?
**A.** The IC50 was < 1000 nM.

**Q.** For `CCOC(=O)CCCCOc1c(C(=O)Cc2c(Cl)cncc2Cl)ccc(OC)c1OC` [Compound 182, 5-{6-[2-(3,5-Dichloro-pyridin-4-yl)-acetyl]-2,3-dimethoxy-phenoxy}-pentanoic acid ethyl ester], which IC50 is on record?
**A.** The IC50 was < 1000 nM.

**Q.** How did the IC50 turn out when `COc1ccc(C(=O)Cc2c(Cl)cncc2Cl)c(OCCCOCc2ccccc2)c1OC` [Compound 183, 1-[2-(3-Benzyloxy-propoxy)-3,4-dimethoxy-phenyl]-2-(3,5-dichloro-pyridin-4-yl)-ethanone] was run?
**A.** Its IC50 is < 1000 nM.

**Q.** How did the IC50 turn out when `COc1ccc(C(=O)Cc2c(Cl)cncc2Cl)c(OCC(N)=O)c1OC` [Compound 184, 2-{6-[2-(3,5-Dichloro-pyridin-4-yl)-acetyl]-2,3-dimethoxy-phenoxy}-acetamide] was run?
**A.** Its IC50 is < 1000 nM.

**Q.** How did the IC50 turn out when `COc1ccc(C(=O)Cc2c(Cl)cncc2Cl)c(OCCN2C(=O)c3ccccc3C2=O)c1OC` [Compound 185, 2-(2-{6-[2-(3,5-Dichloro-pyridin-4-yl)-acetyl]-2,3-dimethoxy-phenoxy}-ethyl)-isoindole-1,3-dione] was run?
**A.** The IC50 was < 1000 nM.

**Q.** `COc1ccc(C(=O)Cc2c(Cl)cncc2Cl)c(OCCCN2C(=O)c3ccccc3C2=O)c1OC` [Compound 186, 2-(3-{6-[2-(3,5-Dichloro-pyridin-4-yl)-acetyl]-2,3-dimethoxy-phenoxy}-propyl)-isoindole-1,3-dione] was tested. Which IC50 did it give?
**A.** Its IC50 is < 1000 nM.

**Q.** `CCOc1c(OC)ccc(C(=O)Cc2c(Cl)cncc2Cl)c1OC` [Compound 188, 2-(3,5-Dichloro-pyridin-4-yl)-1-(3-ethoxy-2,4-dimethoxy-phenyl)-ethanone] was tested. Which IC50 did it give?
**A.** Its IC50 is < 1000 nM.

**Q.** For `COc1ccc(C(=O)Cc2c(Cl)cncc2Cl)c(OC)c1OCC1CC1` [Compound 189, 1-(3-Cyclopropylmethoxy-2,4-dimethoxy-phenyl)-2-(3,5-dichloro-pyridin-4-yl)-ethanone], which IC50 is on record?
**A.** Its IC50 is < 1000 nM.

**Q.** For `C=CCCOc1c(OC)ccc(C(=O)Cc2c(Cl)cncc2Cl)c1OCC=C` [Compound 190, 1-(2-Allyloxy-3-but-3-enyloxy-4-methoxy-phenyl)-2-(3,5-dichloro-pyridin-4-yl)-ethanone], which IC50 is on record?
**A.** Its IC50 is < 1000 nM.

**Q.** Which IC50 does the source give for `C=CCOc1c(OC)ccc(C(=O)Cc2c(Cl)cncc2Cl)c1OC` [Compound 193, 1-(3-Allyloxy-2,4-dimethoxy-phenyl)-2-(3,5-dichloro-pyridin-4-yl)-ethanone] here?
**A.** The IC50 was < 1000 nM.

**Q.** With `COc1ccc(C(=O)Cc2c(Cl)cncc2Cl)c(OCC(=O)N2CCCC2)c1OC` [Compound 202, 2-(3,5-Dichloro-pyridin-4-yl)-1-[3,4-dimethoxy-2-(2-oxo-2-pyrrolidin-1-yl-ethoxy)-phenyl]-ethanone] as the molecule, how does the IC50 read?
**A.** Its IC50 is < 1000 nM.

**Q.** `COc1ccc(C(=O)Cc2c(Cl)cncc2Cl)c(OCC(=O)NCc2ccccc2)c1OC` [Compound 203, N-Benzyl-2-{6-[2-(3,5-dichloro-pyridin-4-yl)-acetyl]-2,3-dimethoxy-phenoxy}-acetamide] was tested. Which IC50 did it give?
**A.** Its IC50 is < 1000 nM.

**Q.** `COc1ccc(C(=O)Cc2c(Cl)cncc2Cl)c(OCC(=O)N2CCOCC2)c1OC` [Compound 204, 2-(3,5-Dichloro-pyridin-4-yl)-1-[3,4-dimethoxy-2-(2-morpholin-4-yl-2-oxo-ethoxy)-phenyl]-ethanone] was tested. Which IC50 did it give?
**A.** Its IC50 is < 1000 nM.

**Q.** Which IC50 does the source give for `COc1ccc(C(=O)Cc2c(Cl)cncc2Cl)c(OCC(=O)Nc2ccccc2)c1OC` [Compound 205, 2-{6-[2-(3,5-Dichloro-pyridin-4-yl)-acetyl]-2,3-dimethoxy-phenoxy}-N-phenyl-acetamide] here?
**A.** Its IC50 is < 1000 nM.

**Q.** How did the IC50 turn out when `COc1ccc(C(=O)Cc2c(Cl)cncc2Cl)c(OCC(=O)N(C)c2ccccc2)c1OC` [Compound 206, 2-{6-[2-(3,5-Dichloro-pyridin-4-yl)-acetyl]-2,3-dimethoxy-phenoxy}-N-methyl-N-phenyl-acetamide] was run?
**A.** The IC50 was < 1000 nM.

**Q.** Which IC50 does the source give for `CCCNC(=O)COc1c(C(=O)Cc2c(Cl)cncc2Cl)ccc(OC)c1OC` [Compound 208, 2-{6-[2-(3,5-Dichloro-pyridin-4-yl)-acetyl]-2,3-dimethoxy-phenoxy}-N-propyl-acetamide] here?
**A.** Its IC50 is < 1000 nM.

**Q.** For `COc1ccc(C(=O)Cc2c(Cl)cncc2Cl)c(OCC(=O)NC(C)C)c1OC` [Compound 209, 2-{6-[2-(3,5-Dichloro-pyridin-4-yl)-acetyl]-2,3-dimethoxy-phenoxy}-N-isopropyl-acetamide], which IC50 is on record?
**A.** Its IC50 is < 1000 nM.

**Q.** How did the IC50 turn out when `CCCCNC(=O)COc1c(C(=O)Cc2c(Cl)cncc2Cl)ccc(OC)c1OC` [Compound 210, N-Butyl-2-{6-[2-(3,5-dichloro-pyridin-4-yl)-acetyl]-2,3-dimethoxy-phenoxy}-acetamide] was run?
**A.** The IC50 was < 1000 nM.

**Q.** How did the IC50 turn out when `COc1ccc(C(=O)Cc2c(Cl)cncc2Cl)c(OCC(=O)NC2CCCC2)c1OC` [Compound 211, N-Cyclopentyl-2-{6-[2-(3,5-dichloro-pyridin-4-yl)-acetyl]-2,3-dimethoxy-phenoxy}-acetamide] was run?
**A.** Its IC50 is < 1000 nM.

**Q.** `COc1ccc(C(=O)Cc2c(Cl)cncc2Cl)c(OCC(=O)NCCC(C)C)c1OC` [Compound 212, 2-{6-[2-(3,5-Dichloro-pyridin-4-yl)-acetyl]-2,3-dimethoxy-phenoxy}-N-(3-methyl-butyl)-acetamide] was tested. Which IC50 did it give?
**A.** The IC50 was < 1000 nM.
